Key:
[1] = target: T1, wild type AXL (wtAXL) receptor tyrosine kinase (Homo sapiens, UniProt P30530); test: NIH-3T3-AXL cellular kinase assay (pY-AXL-ELISA); assay type: cell-based; conditions: NIH-3T3-AXL (clone 22) cells, serum depleted, compounds 1 h; Table Ia
T1 construct: WtAXL cDNA was cloned into vector pLXSN(ESK) and transfected into Phoenix E packaging cells; expressed in transfected cells; host or cells: NIH3T3 N7 (mouse fibroblasts), retrovirally infected, clone 22
T1 sequence (P30530 26-894): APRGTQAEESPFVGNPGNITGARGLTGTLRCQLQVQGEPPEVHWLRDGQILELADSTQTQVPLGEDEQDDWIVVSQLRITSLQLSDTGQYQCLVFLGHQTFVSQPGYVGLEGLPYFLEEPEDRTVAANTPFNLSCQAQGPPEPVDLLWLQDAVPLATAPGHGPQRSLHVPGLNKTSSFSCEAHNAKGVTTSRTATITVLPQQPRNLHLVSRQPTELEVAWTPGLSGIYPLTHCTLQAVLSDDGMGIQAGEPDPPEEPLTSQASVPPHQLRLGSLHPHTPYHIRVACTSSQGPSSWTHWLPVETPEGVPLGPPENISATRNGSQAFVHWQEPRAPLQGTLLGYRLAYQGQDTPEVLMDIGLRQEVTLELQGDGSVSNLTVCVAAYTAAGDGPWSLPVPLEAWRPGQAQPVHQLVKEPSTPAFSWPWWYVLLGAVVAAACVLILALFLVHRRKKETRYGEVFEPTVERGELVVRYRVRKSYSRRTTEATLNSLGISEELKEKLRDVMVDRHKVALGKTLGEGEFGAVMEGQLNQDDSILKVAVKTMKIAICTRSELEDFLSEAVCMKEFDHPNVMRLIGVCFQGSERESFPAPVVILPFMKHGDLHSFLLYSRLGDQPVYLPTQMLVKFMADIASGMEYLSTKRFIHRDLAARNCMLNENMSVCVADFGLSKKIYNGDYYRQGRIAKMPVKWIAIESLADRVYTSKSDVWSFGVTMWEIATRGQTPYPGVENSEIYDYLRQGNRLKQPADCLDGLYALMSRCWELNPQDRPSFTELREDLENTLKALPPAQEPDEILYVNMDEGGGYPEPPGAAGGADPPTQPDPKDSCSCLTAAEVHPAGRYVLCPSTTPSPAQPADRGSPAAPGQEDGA
Protocol: WtAXL cDNA was cloned into vector pLXSN(ESK) and transfected into Phoenix E packaging cells. The viral supernatant was collected and used to infect target cells NIH3T3 N7. Monoclonal NIH3T3-AXL cell lines stably expressing wtAXL were generated by selecting retrovirally infected cells in medium containing puromycin (2 μg/ml) and subsequent clonal separation.
Serial dilutions of compounds were added, and the cells were further incubated for 1 h. Cells were washed with PBS and lysed on ice in 500 μl lysis buffer (50 mM HEPES (pH 7.5), 150 mM NaCl, 1 mM EGTA, 10% Glycerol, 1% Triton X-100, 100 mM NaF, 10 mM Na4P2O7.10H2O, 1 mM Na3VO4, 1 mM phenylmethylsulfonyl fluoride, and […]) for 15 min. The cell lysate were used for phosphotyrosine AXL enzyme-linked immunosorbant assay (pY-AXL-ELISA). […] Subsequently 96-well plates were blocked with PBS-0.05% Tween®20+10% FBS for 4 h at 37° C. Plates were washed 5 times with PBS-0.05% Tween®20 and 95 μl of lysate was transferred per well for incubation overnight at 4° C. Plates were washed 5 times with PBS-0.05% Tween®20 (Sigma, Steinheim, Germany). For detection of phosphorylated tyrosine we used homemade biotynilated 4G10-antibody (0.5 μg/ml) in PBS-0.05% Tween®20+10% FBS (100 μl/well) and incubated the 96-well plate for 2 h at room temperature. The anti-phosphotyrosine mouse monoclonal antibody 4G10 was biotynilated with Sulfo-NHS®-Biotin according to the suppliers protocol (Pierce, Rockford, Ill., USA) and purified by Mirco Bio-Spin 6 Chromatograpy Columns (BIO RAD Laboratories, Inc., Hercules, Calif., USA) using PBS as diluent. Plates were washed 5 times with PBS-0.05% Tween®20. For biding to biotin Alkaline Phosphatase Conjugated Strepavidin SA110 (Millipore, Billerica, Mass., USA) (1:4000) was used in PBS-0.05% Tween20+10% FBS (100 μl/well) and incubated for 30 min at room temperature. Plates were washed 5 times with PBS-0.05% Tween20. For fluorimetric detection of alkaline phosphatase AttoPhos Substrate Set (Roche diagnostics GmbH, Mannheim, Germany) was used (100 μl/well). The fluorimetric signal was quantified after 90 min at 430/560 nm wavelength using a TECAN Ultra Evolution plate reader (Tecan Deutschland GmbH, Crailsheim, Germany).

Hs578T [2] = test: Cell vitality assay (ATP assay, CellTiter-Glo); assay type: cell-based; conditions: Homo sapiens, Hs-578T; HS578T cell line, 72 h; Table Ib; read-out: IC50 ATP-Assay HS578T after 72 h
Procedure, shortened: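 1000 cells/well incubated 72 h with compound at 12.5 down to 0.195 μM (twofold steps) or DMSO control. Viability measured as cellular ATP by CellTiter-Glo luminescence; IC50 taken as the concentration giving 50% of the DMSO-control ATP level.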

Hs578T [3] = test: Wound healing migration assay; assay type: cell-based; conditions: Homo sapiens, Hs-578T; HS578T cell line; Table Ib
Procedure, shortened: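 Cells seeded at 150000/24 well, grown to monolayer overnight, scratched with a pipette tip, then treated with compound at 12.5, 6.25 or 3.125 μM versus DMSO. Stopped by crystal violet fixation at 48-72 h once control wounds closed; IC50 taken as 50% wound size between t0 and t48 or t72.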

Hs578T [4] = test: Matrigel outgrowth assay/branching assay; assay type: cell-based; conditions: Homo sapiens, Hs-578T; HS578T cell line; Table Ib; read-out: Total branching inhibition in Matrigel HS578T
Procedure, shortened: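 Cells (5000/well) were seeded onto polymerized 3 mg/ml Matrigel with compound at 3.125, 1.56 or 0.78 μM, or DMSO. Imaging by inverted microscopy at 48, 72 and 96 h scored invasive branching. Only concentrations giving total branching inhibition counted as positive.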

COc1cc2c(Oc3ccc(NS(=O)(=O)c4ccc(F)c(F)c4)cc3F)ccnc2cc1OCCCN1CCCC(C)C1 (centres unmarked) [Example 48, 3,4-Difluoro-N-(3-fluoro-4-{6-methoxy-7-[3-(3-methyl-piperidin-1-yl)-propoxy]-quinolin-4-yloxy}-phenyl)-benzenesulfonamide]
IC50 [1]: < 0.5 µM | IC50 (Hs578T [2]): ≤ 12.5 µM | IC50 (Hs578T [3]): ≤ 12.5 µM | IC50 (Hs578T [4]): 10 to 25 µM | melting point: 120 to 122 °C

COc1cc2c(Oc3ccc(NS(=O)(=O)c4cc(Cl)ccc4Cl)cc3F)ccnc2cc1OCCCN1CCCC(C)C1 (centres unmarked) [Example 50, 2,5-Dichloro-N-(3-fluoro-4-{6-methoxy-7-[3-(3-methyl-piperidin1-yl)-propoxy]-quinolin-4-yloxy}-phenyl)-benzenesulfonamide]
IC50 [1]: < 0.5 µM | IC50 (Hs578T [2]): ≤ 12.5 µM | IC50 (Hs578T [3]): ≤ 12.5 µM | IC50 (Hs578T [4]): ≤ 10 µM | melting point: 127 to 129 °C

COc1cc2c(Oc3ccc(NS(=O)(=O)c4ccc(Cl)c(Cl)c4)cc3F)ccnc2cc1OCCCN1CCCC(C)C1 (centres unmarked) [Example 52, 3,4-Dichloro-N-(3-fluoro-4-{6-methoxy-7-[3-(3-methyl-piperidin-1-yl)-propoxy]-quinolin-4-yloxy}-phenyl)-benzenesulfonamide]
IC50 [1]: < 0.5 µM | IC50 (Hs578T [2]): ≤ 12.5 µM | IC50 (Hs578T [3]): ≤ 12.5 µM | IC50 (Hs578T [4]): ≤ 10 µM | melting point: 123 to 124 °C

COc1cc2c(Oc3ccc(NS(=O)(=O)c4cc(Cl)cc(Cl)c4)cc3F)ccnc2cc1OCCCN1CCCC(C)C1 (centres unmarked) [Example 53, 3,5-Dichloro-N-(3-fluoro-4-{6-methoxy-7-[3-(3-methyl-piperidin-1-yl)-propoxy]-quinolin-4-yloxy}-phenyl)-benzenesulfonamide]
IC50 [1]: < 0.5 µM | IC50 (Hs578T [2]): ≤ 12.5 µM | IC50 (Hs578T [3]): ≤ 12.5 µM | IC50 (Hs578T [4]): 10 to 25 µM | melting point: 126 to 128 °C

COc1cc2c(Oc3ccc(NS(=O)(=O)c4ccc(C)s4)cc3F)ccnc2cc1OCCCN1CCCC(C)C1 (centres unmarked) [Example 62, 5-Methyl-thiophene-2-sulfonic acid (3-fluoro-4-{6-methoxy-7-[3-(3-methyl-piperidin-1-yl)-propoxy]-quinolin-4-yloxy}-phenyl)-amide]
IC50 [1]: < 0.5 µM | IC50 (Hs578T [2]): ≤ 12.5 µM | IC50 (Hs578T [3]): 12.5 to 50 µM | IC50 (Hs578T [4]): 10 to 25 µM | melting point: 99 to 101 °C

COc1cc2c(Oc3ccc(NS(=O)(=O)c4c(Cl)csc4Cl)cc3F)ccnc2cc1OCCCN1CCCC(C)C1 (centres unmarked) [Example 64, 2,4-Dichloro-thiophene-3-sulfonic acid (3-fluoro-4-{6-methoxy-7-[3-(3-methyl-piperidin-1-yl)-propoxy]-quinolin-4-yloxy}-phenyl)-amide]
IC50 [1]: < 0.5 µM | IC50 (Hs578T [2]): ≤ 12.5 µM | IC50 (Hs578T [3]): ≤ 12.5 µM | IC50 (Hs578T [4]): 10 to 25 µM | melting point: 119 to 121 °C

COc1cc2c(Oc3ccc(NS(=O)(=O)c4ccsc4)cc3F)ccnc2cc1OCCCN1CCCC(C)C1 (centres unmarked) [Example 65, Thiophene-3-sulfonic acid (3-fluoro-4-{6-methoxy-7-[3-(3-methyl-piperidin-1-yl)-propoxy]-quinolin-4-yloxy}-phenyl)-amide]
IC50 [1]: < 0.5 µM | IC50 (Hs578T [2]): ≤ 12.5 µM | IC50 (Hs578T [3]): ≤ 12.5 µM | IC50 (Hs578T [4]): 10 to 25 µM | melting point: 174 to 176 °C

COc1cc2c(Oc3ccc(NS(=O)(=O)c4csc5ccccc45)cc3F)ccnc2cc1OCCCN1CCCC(C)C1 (centres unmarked) [Example 67, Benzo[b]thiophene-3-sulfonic acid (3-fluoro-4-{6-methoxy-7-[3-(3-methyl-piperidin-1-yl)-propoxy]-quinolin-4-yloxy}-phenyl)-amide]
IC50 [1]: < 0.5 µM | IC50 (Hs578T [2]): ≤ 12.5 µM | IC50 (Hs578T [3]): ≤ 12.5 µM | IC50 (Hs578T [4]): ≤ 10 µM | melting point: 126 to 128 °C

COc1cc2c(Oc3ccc(NS(=O)(=O)c4cc(Cl)cc(Cl)c4OC)cc3F)ccnc2cc1OCCCN1CCOCC1 [Example 76, 3,5-Dichloro-N-{3-fluoro-4-[6-methoxy-7-(3-morpholin-4-yl-propoxy)-quinolin-4-yloxy]-phenyl}-2-methoxy-benzenesulfonamide]
IC50 [1]: < 0.5 µM | IC50 (Hs578T [2]): ≤ 12.5 µM | IC50 (Hs578T [3]): 12.5 to 50 µM | IC50 (Hs578T [4]): 10 to 25 µM | melting point: 189 to 191 °C

COc1cc2c(Oc3ccc(NS(=O)(=O)c4ccccc4C(F)(F)F)cc3C)ccnc2cc1OCCCN1CCC(C)CC1 [Example 89, N-(4-{6-Methoxy-7-[3-(4-methyl-piperidin-1-yl)-propoxy]-quinolin-4-yloxy}-3-methyl-phenyl)-2-trifluoromethyl-benzenesulfonamide]
IC50 [1]: < 0.5 µM | IC50 (Hs578T [2]): ≤ 12.5 µM | IC50 (Hs578T [3]): ≤ 12.5 µM | IC50 (Hs578T [4]): ≤ 10 µM | melting point: 165 to 167 °C

COc1cc2c(Oc3ccc(NS(=O)(=O)c4cc(Cl)ccc4Cl)cc3F)ccnc2cc1OCCN1CCOCC1 [Example 106, 2,5-Dichloro-N-{3-fluoro-4-[6-methoxy-7-(2-morpholin-4-yl-ethoxy)-quinolin-4-yloxy]-phenyl}-benzenesulfonamide]
IC50 [1]: < 0.5 µM | IC50 (Hs578T [2]): ≤ 12.5 µM | IC50 (Hs578T [3]): 12.5 to 50 µM | IC50 (Hs578T [4]): 10 to 25 µM | melting point: 194 to 196 °C

COc1cc2c(Oc3ccc(NS(=O)(=O)c4ccccc4Cl)cc3F)ccnc2cc1OCCN1CCOCC1 [Example 108, 2-Chloro-N-{3-fluoro-4-[6-methoxy-7-(2-morpholin-4-yl-ethoxy)-quinolin-4-yloxy]-phenyl}-benzenesulfonamide]
IC50 [1]: < 0.5 µM | IC50 (Hs578T [2]): ≤ 12.5 µM | IC50 (Hs578T [3]): 12.5 to 50 µM | IC50 (Hs578T [4]): 10 to 25 µM | melting point: 180 to 181 °C

COc1cc2c(Oc3ccc(NS(=O)(=O)c4ccccc4[N+](=O)[O-])cc3F)ccnc2cc1OCCN1CCOCC1 [Example 109, N-{3-Fluoro-4-[6-methoxy-7-(2-morpholin-4-yl-ethoxy)-quinolin-4-yloxy]-phenyl}-2-nitro-benzenesulfonamide]
IC50 [1]: < 0.5 µM | IC50 (Hs578T [2]): ≤ 12.5 µM | IC50 (Hs578T [3]): 12.5 to 50 µM | IC50 (Hs578T [4]): 10 to 25 µM | melting point: 129 to 131 °C

— patent US9169241B2, “Quinolinyloxyphenylsulfonamides” (Max-Planck-Gesellschaft Zur Forderung der Wissenschaften …, priority 2009, dated 2015)
